# Measurements reported in US20240034729A9, “HETEROCYCLIC COMPOUND, INTERMEDIATE, PREPARATION METHOD THEREFOR AND APPLICATION THEREOF” (WUHAN LL SCIENCE AND TECHNOLOGY DEVELOPMENT CO., LTD., priority 2018, published 2024).
# Like-named read-outs stand apart in the source and are kept apart here.
# What was measured:
# [1] = biological target: hP2X2/3 (heterodimeric receptors formed by human purinergic P2X receptors subtype 2 and subtype 3) (Homo sapiens (Human), UniProt P56373+Q9UBL9); assay: FLIPR calcium assay, hP2X2/3 expressed in HEK293 cells (P2X2/3 receptor selectivity); assay type: cell-based; settings: for IC50: HEK293 cells expressing hP2X2/3, agonist BZ-ATP 5 μM, unit inferred
# [2] = biological target: hP2X3 (human purinergic P2X receptor subtype 3) (Homo sapiens (Human), UniProt P56373); assay: FLIPR calcium assay, hP2X3 expressed in HEK293 cells; assay type: cell-based; settings: read-out: P2X3 IC50
# [3] = HEK293 cells expressing hP2X3, agonist BZ-ATP 2.5 μM, class symbols
# hP2X3 (human purinergic P2X receptor subtype 3), sequence (P56373 whole entry): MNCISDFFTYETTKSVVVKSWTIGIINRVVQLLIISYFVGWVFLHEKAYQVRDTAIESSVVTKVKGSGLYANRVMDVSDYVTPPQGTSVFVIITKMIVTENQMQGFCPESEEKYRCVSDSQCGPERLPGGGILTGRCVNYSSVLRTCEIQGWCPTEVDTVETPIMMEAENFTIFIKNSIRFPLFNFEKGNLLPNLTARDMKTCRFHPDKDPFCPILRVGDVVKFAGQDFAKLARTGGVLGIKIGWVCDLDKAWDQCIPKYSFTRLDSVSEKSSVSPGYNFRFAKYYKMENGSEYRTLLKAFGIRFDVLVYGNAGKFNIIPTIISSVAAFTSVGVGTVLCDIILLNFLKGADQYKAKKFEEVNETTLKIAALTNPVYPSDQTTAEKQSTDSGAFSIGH
# hP2X2/3 (heterodimeric receptors formed by human purinergic P2X receptors subtype 2 and subtype 3), sequence (P56373 whole entry): as above
# hP2X2/3 (heterodimeric receptors formed by human purinergic P2X receptors subtype 2 and subtype 3), sequence (Q9UBL9 whole entry): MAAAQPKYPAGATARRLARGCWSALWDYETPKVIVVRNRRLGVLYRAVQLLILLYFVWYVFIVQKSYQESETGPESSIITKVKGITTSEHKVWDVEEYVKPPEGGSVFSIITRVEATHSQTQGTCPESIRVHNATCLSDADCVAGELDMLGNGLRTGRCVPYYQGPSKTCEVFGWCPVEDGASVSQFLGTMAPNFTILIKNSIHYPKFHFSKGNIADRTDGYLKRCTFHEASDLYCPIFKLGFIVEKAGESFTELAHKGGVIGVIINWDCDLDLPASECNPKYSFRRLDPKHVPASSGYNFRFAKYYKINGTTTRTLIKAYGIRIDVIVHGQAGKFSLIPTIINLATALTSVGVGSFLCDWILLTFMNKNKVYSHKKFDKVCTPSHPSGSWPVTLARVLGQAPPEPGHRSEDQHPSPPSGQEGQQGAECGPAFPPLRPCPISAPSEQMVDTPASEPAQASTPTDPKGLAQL
Compound,IC50 [2] [nM],other results
"CNC(=O)c1cc(F)c(-c2oc3cc(C)cnc3c2C[C@H]2CN(C(=O)OC)CCO2)c(F)c1 [Compound 54, methyl (S)-2-((2-(2,6-difluoro-4-(methylcarbamoyl)phenyl)-6-methylfurano[3,2-b]pyridin-3-yl)methyl)morpholine-4-carboxylate]",< 10,Folds of selectivity [1]: A (key: A: folds of selectivity >1000; B: 200< folds of selectivity ≤1000; C: folds of selectivity ≤200); IC50 [1]: > 60000 nM
COC(=O)N1CCO[C@@H](Cc2c(-c3c(F)cc(NC(C)=O)cc3F)nc3cc(C(F)F)ccn23)C1 [Compound 151],< 10,Folds of selectivity [1]: A (key: A: folds of selectivity >1000; B: 200< folds of selectivity ≤1000; C: folds of selectivity ≤200); IC50 [1]: > 60000 nM
"COC(=O)N1CCO[C@@H](Cc2c(-c3c(F)cc(-c4ccc(C#N)[nH]4)cc3F)nc3cc(C)ccn23)C1 [Compound 138, methyl (S)-2-((2-(2,6-difluoro-4-(5-cyano-1H-pyrrol-2-yl)phenyl)-7-methylimidazo[1,2-a]pyridin-3-yl)methyl)morpholine-4-carboxylate]",< 10,Folds of selectivity [1]: A (key: A: folds of selectivity >1000; B: 200< folds of selectivity ≤1000; C: folds of selectivity ≤200); IC50 [1]: > 60000 nM
"COC(=O)N1CCO[C@@H](Cc2c(-c3c(F)cc(-c4nc(C(=O)O)co4)cc3F)nc3cc(C)ccn23)C1 [Compound 114, (S)-2-(3,5-difluoro-4-(3-((4-(methoxycarbonyl)morpholin-2-yl)methyl)-7-methylimidazo[1,2-a]pyridin-2-yl)phenyl)oxazole-4-carboxylic acid]",10 to 50,–
"COC(=O)N1CCO[C@@H](Cc2c(-c3c(F)cc(-n4cnnc4)cc3F)nc3cc(C)ccn23)C1 [Compound 143, methyl (S)-2-((2-(2,6-difluoro-4-(4H-1,2,4-triazol-4-yl)phenyl)-7-methylimidazo[1,2-a]pyridin-3-yl)methyl)morpholine-4-carboxylate]",< 10,–
CCC(=O)N1CCO[C@@H](Cc2c(-c3c(F)cc(NC(C)=O)cc3F)nc3cc(CF)ccn23)C1 [Compound 155],< 10,–
"COC(=O)N1CCO[C@@H](Cc2c(-c3c(F)cc(-n4ccc(C5(C(=O)O)CC5)n4)cc3F)nc3cc(C)ccn23)C1 [Compound 130, (S)-1-(1-(3,5-difluoro-4-(3-((4-(carbomethoxy<methoxycarbonyl>)morpholin-2-yl)methyl)-7-methylimidazo[1,2-a]pyridin-2-yl)phenyl)-1H-pyrazol-3-yl)cyclopropane-1-carboxylic acid]",–,"IC50 [2, 3]: 200 to 5000 nM"
COC(=O)N1CCO[C@@H](Cc2c(-c3c(F)cc(N4C=CCC4=O)cc3F)nc3cc(C)ccn23)C1 [Compound 100],10 to 50,–
"CNC(=O)c1cc(F)c(-c2nc3cc(C)ccn3c2CN2CCNCC2=O)c(F)c1 [Compound 48, (S)-2-((2-(2,6-difluoro-4-(methylcarbamoyl)phenyl)-7-methylimidazo[1,2-a]pyridin-3-yl)methyl)-2-carbonyl-piperazine]",50 to 200,–
COC(=O)N1CCO[C@@H](Cc2c(-c3c(F)cc(NC(=O)CC(C)C(N)=O)cc3F)nc3cc(C)ccn23)C1 (some centres unmarked) [Compound 170],50 to 200,–
COC(=O)N1CCO[C@@H](Cc2c(-c3c(F)cc(-n4ccc(C#N)n4)cc3F)nc3cc(C)ccn23)C1 [Compound 124],< 10,–
COC(=O)N1CCO[C@@H](Cc2c(-c3c(F)cc(NC(=O)CC(C)C(=O)O)cc3F)nc3cc(C)ccn23)C1 (some centres unmarked) [Compound 92],10 to 50,–
COC(=O)N1CCO[C@@H](Cc2c(-c3ccc(S(N)(=O)=O)nc3Cl)nc3cc(C)ccn23)C1 [Compound 190],< 10,–
"COC(=O)N1CCO[C@@H](Cc2c(-c3c(F)cc(NC(=O)CC4(C(=O)O)CC4)cc3F)nc3cc(C)ccn23)C1 [Compound 61, (S)-1-(2-((3,5-difluoro-4-(3-((4-(carbomethoxy<methoxycarbonyl>)morpholin-2-yl)methyl)-7-methylimidazo [1,2-a]pyridin-2-yl)phenyl)amino)-2-carbonylethyl)cyclopropanecarboxylic acid]",< 10,Folds of selectivity [1]: A (key: A: folds of selectivity >1000; B: 200< folds of selectivity ≤1000; C: folds of selectivity ≤200); IC50 [1]: > 60000 nM
CNC(=O)C1(c2cc(F)c(-c3nc4cc(C)ccn4c3C[C@H]3CN(C(=O)OC)CCO3)c(F)c2)CC1 [Compound 66],50 to 200,–
"CCC(=O)N1CCO[C@@H](Cc2c(-c3c(F)cc(-c4ccc(C#N)s4)cc3F)nc3cc(C)ccn23)C1 [Compound 140, (S)-5-(3,5-difluoro-4-(7-methyl-3-((4-propionylmorpholin-2-yl)methyl)imidazo[1,2-a]pyridin-2-yl)phenyl)thiophene-2-carbonitrile]",50 to 200,–
COC(=O)N1CCO[C@@H](Cc2c(-c3c(F)cc(-c4nc(C5(O)CC5)c[nH]4)cc3F)nc3cc(C)ccn23)C1 [Compound 116],10 to 50,–
COC(=O)N1CCO[C@@H](Cc2c(-c3c(F)cc(NC(=O)C4CCC(C(=O)O)CC4)cc3F)nc3cc(C)ccn23)C1 (some centres unmarked) [Compound 82],10 to 50,–
COC(=O)N1CCO[C@@H](Cc2c(-c3ncc(S(N)(=O)=O)nc3Cl)nc3cc(C)ccn23)C1 [Compound 191],< 10,Folds of selectivity [1]: A (key: A: folds of selectivity >1000; B: 200< folds of selectivity ≤1000; C: folds of selectivity ≤200); IC50 [1]: > 60000 nM
COC(=O)N1CCO[C@@H](Cc2c(-c3c(F)cc(-n4ccc(C5(C(=O)O)CC5)c4)cc3F)nc3cc(C)ccn23)C1 [Compound 136],50 to 200,–
COC(=O)N1CCC[C@@H](Cc2c(-c3c(F)cc(S(N)(=O)=O)cc3F)nc3cc(C)ccn23)C1 [Compound 187],50,–

Compound,IC50 [2] [nM],other results
CNC(=O)c1cc(F)c(-c2nc3n(c2C[C@H]2CN(C(=O)OC)CCO2)CCN(C)C3)c(F)c1 [Compound 62],–,"IC50 [2, 3]: 200 to 5000 nM"
COC(=O)N1CCO[C@@H](Cc2c(-c3c(F)cc(NC(=O)c4ccncc4)cc3F)nc3cc(C)ccn23)C1 [Compound 86],10 to 50,–
COC(=O)N1CCO[C@@H](Cc2c(-c3c(F)cc(-n4cnc(OC)c4)cc3F)nc3cc(C)ccn23)C1 [Compound 112],–,"IC50 [2, 3]: 200 to 5000 nM"
"(S,E)-4-((3,5-difluoro-4-(3-((4-(methoxycarbonyl)-morpholin-2-yl)-methyl)-7-methylimidazo[1,2-a]pyri din-2-yl)-phenyl)-amino)-4-oxobutyl-2-enoic acid [Compound 27]",< 10,–
COC(=O)N1CCO[C@@H](Cc2c(-c3c(F)cc(C4(C(N)=O)CC4)cc3F)nc3cc(C)ccn23)C1 [Compound 65],50 to 200,–
COC(=O)N1CCO[C@@H](Cc2c(-c3c(F)cc(-n4nccc4C#N)cc3F)nc3cc(C)ccn23)C1 [Compound 124-2],–,"IC50 [2, 3]: ≤ 10 nM"
COC(=O)N1CCO[C@@H](Cc2c(-c3c(F)cc(NC4CC(=O)C4)cc3F)nc3cc(C)ccn23)C1 [Compound 78],10 to 50,–
COC(=O)c1cn(-c2cc(F)c(-c3nc4cc(C)ccn4c3C[C@H]3CN(C(=O)OC)CCO3)c(F)c2)cn1 [Compound 108],–,"IC50 [2, 3]: 200 to 5000 nM"
COC(=O)N1CCO[C@@H](Cc2c(-c3c(F)cc(-n4cnnn4)cc3F)nc3cc(C)ccn23)C1 [Compound 58],–,Folds of selectivity [1]: A (key: A: folds of selectivity >1000; B: 200< folds of selectivity ≤1000; C: folds of selectivity ≤200); IC50 [1]: > 60000 nM
"COC(=O)c1cc(F)c(-c2nc3cc(C)ccn3c2C[C@H]2CN(C(=O)OC)CCO2)c(F)c1 [Compound 49, methyl (S)-2-((2-(2,6-difluoro-4-carbomethoxyphenyl)-7-methylimidazo[1,2-a]pyridin-3-yl)-methyl)morpholine-4-carboxylate]",< 10,–
COC(=O)N1CCO[C@@H](Cc2c(-c3c(F)cc(NC(=O)C#CC(=O)O)cc3F)nc3cc(C)ccn23)C1 [Compound 88],10 to 50,–
"CNC1(c2cc(F)c(-c3nc4cc(C)ccn4c3C[C@H]3CN(C(=O)OC)CCO3)c(F)c2)CC1 [Compound 67, methyl (S)-2-((2-(2,6-difluoro-4-(1-(methylamino)cyclopropyl)phenyl)-7-methylimidazo[1,2-a]pyridin-3-yl)methyl) morpholine-4-carboxylate]",10 to 50,–
CNC(=O)c1ccnc(Cc2c(-c3c(F)cc(S(N)(=O)=O)cc3F)nc3cc(C)ccn23)c1 [Compound 185],13,–
COC(=O)N1CCO[C@@H](Cc2c(-c3c(F)cc(C4(N)COC4)cc3F)nc3cc(C)ccn23)C1 [Compound 70],10 to 50,–
"COC(=O)N1CCO[C@@H](Cc2c(-c3c(F)cc(-n4ccc(C(=O)O)n4)cc3F)nc3cc(C)ccn23)C1 [Compound 125, (S)-1-(3,5-difluoro-4-(3-((4-(methoxycarbonyl)morpholin-2-yl)methyl)-7-methylimidazo[1,2-a]pyridin-2-yl)phenyl)-1H-pyrazole-3-carboxylic acid]",< 10,–
COC(=O)N1CCO[C@@H](Cc2c(-c3c(F)cc(NC(=O)CC(C)(C)O)cc3F)nc3cc(C)ccn23)C1 [Compound 90],10 to 50,–
COC(=O)N1CCO[C@@H](Cc2c(-c3c(F)cc(-c4cc[nH]n4)cc3F)nc3cc(F)ccn23)C1 [Compound 103],50 to 200,–
COC(=O)N1CCO[C@@H](Cc2c(-c3c(F)cc(N4CCCC4=O)cc3F)nc3cc(C)ccn23)C1 [Compound 101],10 to 50,–
"COC(=O)N1CCO[C@@H](Cc2c(-c3c(F)cc(-n4cnc(C(=O)O)c4)cc3F)nc3cc(C)ccn23)C1 [Compound 107, (S)-1-(3,5-difluoro-4-(3-((4-(carbomethoxy<methoxycarbonyl>)morpholin-2-yl)methyl)-7-methylimidazo[1,2-a]pyridin-2-yl)phenyl)-1H-imidazole-4-carboxylic acid]",–,"IC50 [2, 3]: 10 to 50 nM"
COC(=O)N1CCO[C@@H](Cc2c(-c3c(F)cc(NS(C)(=O)=O)cc3F)nc3cc(C)ccn23)C1 [Compound 152],< 10,–
COC(=O)N1CCO[C@@H](Cc2c(-c3c(F)cc(-n4ccc(C#N)c4)cc3F)nc3cc(C)ccn23)C1 [Compound 137],10 to 50,–
